Laboratory results as given in ChEMBL document CHEMBL1201862, “PubChem BioAssay data set” (2004).
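Exposure lasted 48 hours, with cells grown in 96-well plates and compounds tested at five concentrations. GI50: concentration for 50% inhibition of growth.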 The source made the active and inactive calls. Cut-off read from the data, not from the text of the source: active = GI50 up to about 1.1 µM and inactive = higher.

Tests used:
Experiment in all cases: DTP human tumour cell line panel, 48 h
[1] = tested on: M14
[2] = tested on: SN12C
[3] = tested on: DU-145
[4] = tested on: NCI-H522
[5] = tested on: IGROV-1
[6] = tested on: MDA-MB-435
[7] = tested on: Malme-3M
[8] = tested on: SK-MEL-28
[9] = tested on: UO-31
[10] = tested on: K562
[11] = tested on: OVCAR-3
[12] = tested on: OVCAR-8
[13] = tested on: MCF7
[14] = tested on: SNB-75
[15] = tested on: HCT-15
[16] = tested on: 786-0
[17] = tested on: NCI-H226
[18] = tested on: NCI-H460
[19] = tested on: OVCAR-4

Row | SMILES | GI50 [1] | GI50 [2] | GI50 [3] | GI50 [4] | GI50 [5] | GI50 [6] | GI50 [7] | GI50 [8] | GI50 [9] | GI50 [10] | GI50 [11] | GI50 [12] | GI50 [13] | GI50 [14] | GI50 [15] [µM] | GI50 [16] | GI50 [17] | GI50 [18] | GI50 [19]
1 | COc1cc(/C=N/NC(=O)c2c(Cl)c(Cl)c(Cl)c(Cl)c2-c2nc3ccccc3[nH]2)ccc1O | 24.7 µM (inactive) | 24.2 µM (inactive) | 19.9 µM (inactive) | 30.6 µM (inactive) | 14 µM (inactive) | 29 µM (inactive) | 21.7 µM (inactive) | 33.6 µM (inactive) | 22.4 µM (inactive) | 20.4 µM (inactive) | 27.3 µM (inactive) | 31.1 µM (inactive) | 16.9 µM (inactive) | 22.9 µM (inactive) | 22 | 28 µM (inactive) | 21.3 µM (inactive) | 19.1 µM (inactive) | 
2 | O=C1c2c(ccc3c2CCC3)CC1Cc1ccc2c(c1)CCC2 (centres undefined) | 32.1 µM (inactive) | 23.4 µM (inactive) | 27.3 µM (inactive) |  | 28.6 µM (inactive) | 24 µM (inactive) | 28.8 µM (inactive) | 51.8 µM (inactive) | 56.6 µM (inactive) | 14 µM (inactive) | 24.4 µM (inactive) | 36.3 µM (inactive) | 22.6 µM (inactive) | 7.38 µM (inactive) | 11 | 32.3 µM (inactive) | 28.2 µM (inactive) | 33.8 µM (inactive) | 27.5 µM (inactive)
3 | C=C(C)CC1=C(OCC)C(OC)(OCC)C1=O (centres undefined) | > 100 µM (inactive) | > 100 µM (inactive) | > 100 µM (inactive) | 47.8 µM (inactive) | > 100 µM (inactive) | > 100 µM (inactive) |  | > 100 µM (inactive) | > 100 µM (inactive) |  | > 100 µM (inactive) | > 100 µM (inactive) | > 100 µM (inactive) | > 100 µM (inactive) | > 100 | > 100 µM (inactive) | > 100 µM (inactive) | > 100 µM (inactive) | > 100 µM (inactive)
4 | CC(=O)/C(=C/NC(=S)c1ccncc1)C(=O)Nc1ccccc1C | > 100 µM (inactive) | > 100 µM (inactive) | > 100 µM (inactive) |  | > 100 µM (inactive) | > 100 µM (inactive) |  | > 100 µM (inactive) | > 100 µM (inactive) |  | > 100 µM (inactive) | > 100 µM (inactive) | > 100 µM (inactive) | > 100 µM (inactive) | > 100 | > 100 µM (inactive) | > 100 µM (inactive) | > 100 µM (inactive) | > 100 µM (inactive)
5 | CC(=O)C1=C(C)N2C(=NC3=C(CCc4ccccc43)C2c2cccc(Br)c2)S1 (centres undefined) | > 100 µM (inactive) | > 100 µM (inactive) | > 100 µM (inactive) |  | 48.2 µM (inactive) | > 100 µM (inactive) |  | > 100 µM (inactive) | > 100 µM (inactive) |  | 93.1 µM (inactive) | > 100 µM (inactive) | > 100 µM (inactive) | > 100 µM (inactive) | 74.8 | > 100 µM (inactive) | 79.6 µM (inactive) |  | > 100 µM (inactive)
6 | Oc1nncc2[nH]c(-c3ccccc3)cc12 | 51.8 µM (inactive) | 54.1 µM (inactive) | 79.8 µM (inactive) |  | > 100 µM (inactive) | 28.2 µM (inactive) | 56.9 µM (inactive) |  | 67.1 µM (inactive) | 44.1 µM (inactive) | 36.2 µM (inactive) | 78.7 µM (inactive) | 24.4 µM (inactive) | 22.9 µM (inactive) | 45.8 | 75 µM (inactive) | 86.1 µM (inactive) | 45.5 µM (inactive) | 55.1 µM (inactive)
7 | S=C(NCCc1ccccn1)c1nc[nH]c1C(=S)NCCc1ccccn1 | 31.9 µM (inactive) | 68.5 µM (inactive) | 30.8 µM (inactive) |  | 34.9 µM (inactive) | 30.1 µM (inactive) | 35.4 µM (inactive) | 52.4 µM (inactive) | 29 µM (inactive) | 40.8 µM (inactive) | 37.9 µM (inactive) | 28.4 µM (inactive) | 36.1 µM (inactive) | 27.5 µM (inactive) | 34.6 | 53.3 µM (inactive) | 46.8 µM (inactive) | 24.1 µM (inactive) | 33.8 µM (inactive)
